Source: US12527788B2, “Defining RNA-small molecule affinity landscapes enables design of a small molecule inhibitor of an oncogenic non-coding RNA” (University of Florida Research Foundation, Incorporated, priority 2017, dated 2026)
pKd: −log10 of the molar value.

What was measured:
[1] = tested on: DU145 prostate cancer cells; test: Apoptosis by Annexin V/PI staining; format: cell-based; conditions: 10 μM and 20 μM
Method: A, Effect of 4 on STK4 protein expression, a direct target of miR-18a. B, Ability of 4 (10 μM and 20 μM) and a miR-18a antagomir (50 nM) to trigger apoptosis. *, p<0.05 and **, p<0.01, as determined by a two-tailed Student t-test.
Although the most common route to modulate protein expression is to inhibit them directly, here we show it is possible to increase protein expression by targeting non-coding RNAs that repress their production.

[2] = tested on: other miRNAs studied (of the 33 with potential binding sites); test: Chem-CLIP in DU145 cell lysates; parameters: species or system human; conditions: 10 μM, DU145 cell lysate
Method: Chem-CLIP in Cell Lysates: DU145 cells were cultured as described above in 100 mm dishes and lysed with 500 μL of Cell Lysis Buffer (10 mM Tris pH 7.4, 0.25% Igepal CA-630 and 150 mM NaCl) for 5 min at room temperature. The cell lysate was then centrifuged and the supernatant collected. Next, 10 μM of 4 was added to the lysate in 1×PBS and the sample was incubated for 2 h at room temperature. The reaction was then directly used for pull-down by incubating with 50 μL of streptavidin resin in 1×PBS for 30 min at room temperature. […] RNA was eluted from the streptavidin beads by incubation with 100 μL of 1× Elution Buffer (10 mM EDTA and 95% formamide) at 65° C. for 20 min. The eluted RNA was cleaned up using a Quick-RNA Miniprep Kit (Zymo) per the manufacturer's protocol. RT-qPCR was completed as described above using 50 ng of total RNA in the RT reaction. Expression levels were normalized to 18S rRNA.

[3] = target: RNAC (U bulge mutated to an AU pair); test: Fluorescence-based binding affinity measurement
Method: FIG. 7: Secondary structures of the nucleic acids to which the binding of small molecule 4 was assessed. […] RNA1 contains the U bulge present in the Dicer processing site common to miR-17, -18a and -20a. RNA2 contains the A bulge that is present in miR-18a. RNA3 contains the G bulge present in miR-17 and miR-20a. Binding affinities (Kd's) are indicated in parentheses and are reported in micromolar.
Mutation of the U bulge to an AU pair (RNAC) eliminates binding (Kd>100 μM).
Binding Affinity Measurements: An in solution, fluorescence-based assay was used to determine binding affinities by monitoring the change in fluorescence intensity of 1-FL (or 2-FL/3-FL/4-FL) as a function of RNA concentration as described previously.^18 Briefly, the RNA of interest was folded in 1× Folding Buffer (8 mM Na2HPO4, pH 7.0, 185 mM NaCl and 1 mM EDTA) by heating at 60° C. for 5 min followed by slowly cooling to room temperature on the bench top. Then, the FL-conjugated compound was added into the RNA solution to a final concentration of 100 nM. Serial dilutions were then completed using 1× Folding Buffer supplemented with 100 nM FL-conjugated compound. The solutions were incubated at room temperature for 30 min and then transferred to a well of a black 384-well plate. […]

STK4 protein = test: Western blotting of STK4 in DU145 cells; format: cell-based; conditions: 20 μM
Method: A previous study has shown that miR-18a represses serine/threonine protein kinase 4 (STK4) protein, a tumor suppressor, in prostate cancer cells and promotes tumorigenesis.^45 Thus, we studied the ability of compound 4 to de-repress STK4 and trigger apoptosis. Treatment of DU145 cells with 20 μM of 4 increases levels of STK4 by 2.5-fold (FIG. 9A).
Western Blotting: Cells were grown in 6-well plates to ˜80% confluency in complete growth medium and then incubated with 10 or 20 μM of 4 for 48 h. Total protein was extracted using M-PER Mammalian Protein Extraction Reagent (Pierce Biotechnology) per the manufacturer's recommended protocol. Extracted total protein was quantified using a Micro BCA Protein Assay Kit (Pierce Biotechnology). […]
The membrane was briefly washed with 1× Tris-buffered saline (TBS; 50 mM Tris-CI, pH 7.5. 150 mM NaCl) and blocked with 5% milk in 1×TBST (1×TBS containing 0.05% Tween-20) for 1 h at room temperature. […] After washing with 1×TBST, protein expression was quantified using SuperSignal West Pico Chemiluminescent Substrate (Pierce Biotechnology) per the manufacturer's protocol.
The membrane was then stripped using 1× Stripping Buffer (200 mM glycine, 1% Tween-20 and 0.1% SDS, pH 2.2) followed by washing in 1×TBST. […] ImageJ software from the National Institutes of Health was used to quantify band intensities.

For `CN1CCN(c2ccc(-c3ccc4nc(-c5cc(C(C)(C)C)c(OCCCC(=O)NCCCN=[N+]=[N-])c(C(C)(C)C)c5)[nH]c4c3)cc2)CC1` [Compound 4], the Apoptosis [1] was “triggers apoptosis”, the “Enrichment in pulled-down fraction” value [2] was “no enrichment” and the pKd [3] was less than 4.00. The “Increase of STK4 levels” value (STK4 protein) was 2.5 fold.
